# Test results from patent US11066357B2, “Benzoannulene derivatives as antiviral agents” (Southern Research Institute, priority 2017, dated 2021).
# Tests used:
# [1] = cytotoxicity (CC50), Table 1
# CHIKV = assay: antiviral activity (EC50), Table 1; format: cell-based; details: Chikungunya virus
Structure (SMILES),CC50 [1] [µM],EC50 (CHIKV) [µM]
"COc1nc2c(cc1C(=O)Nc1ncc(C(C)(C)C)cn1)CCCCC2 [Compound 38, N-(5-(tert.-butyl)pyrimidin-2-yl)-2-methoxy-6,7,8,9-tetrahydro-5H-cyclohepta[b]pyridine-3-carboxamide]",> 40,19.4
"CCn1nc(NC(=O)c2cc3c(nc2OC)CCCCC3)cc1C [Compound 39, N-(1-ethyl-5-methyl-1H-pyrazol-3-yl)-2-methoxy-6,7,8,9-tetrahydro-5H-cyclohepta[b]pyridine-3-carboxamide]",> 40,30.7
"COc1nc2c(cc1C(=O)Nc1ccc(C(C)(C)C(=O)O)cc1)CCCCC2 [Compound 40, 2-(4-(2-methoxy-6,7,8,9-tetrahydro-5H-cyclohepta[b]pyridine-3-carboxamido)phenyl)-2-methylpropanoic acid]",> 40,> 40
